Results reported in patent US12419869B2, “Methods of treating multiple sclerosis” (Vanda Pharmaceuticals Inc., priority 2021, dated 2025).

How the values were obtained:
CYP3A4 and UGT1A1 = experiment: In vitro assessments and limited clinical data, strong CYP3A4 and UGT1A1 inducers; conditions: e.g., rifampin, phenytoin, carbamazepine
Excerpt: It is unclear whether this decrease in ponesimod systemic exposure would be considered of clinical relevance. Coadministration of PONVORY with strong CYP3A4 and UGT1A1 inducers is not recommended.

[1] = Excretion after single oral administration of 14C-ponesimod; assay type: in vivo, human; conditions: single oral 14C-ponesimod
Excerpt: Following a single oral administration of ^14C-ponesimod, 57% to 80% of the dose was recovered in feces (16% as unchanged ponesimod), and 10% to 18% in urine (no unchanged ponesimod).

[2] = Animal studies of blood-brain-barrier passage; assay type: in vivo
Excerpt: Ponesimod is highly bound to plasma proteins (>99%) and is mainly (78.5%) distributed in the plasma fraction of whole blood.

clinical = conditions: human, in vivo
Procedure: Steady-state levels are approximately 2.0 to 2.6-fold greater than with a single dose, and are achieved following 3 days of administration of the maintenance dose of ponesimod.
The pharmacokinetics of ponesimod are similar in healthy subjects and patients with multiple sclerosis, with 25% inter-subject variability across studies.
The time to reach maximum plasma concentration of ponesimod is 2-4 hours post-dose.
Following IV administration in healthy subjects, the steady-state volume of distribution of ponesimod is 160 L.

pregnant rabbits [3] = experiment: Embryofetal development study in pregnant rabbits, oral; assay type: in vivo
Excerpt: (§1) No maternal toxicity was observed.

[4] = Pharmacokinetics in renal impairment; assay type: in vivo, human; conditions: moderate or severe renal impairment
Excerpt: No dose adjustment is necessary in patients with renal impairment. […] The effect of dialysis on the PK of ponesimod has not been studied. Due to the high plasma protein binding (greater than 99%) of ponesimod, dialysis is not expected to alter the total and unbound ponesimod concentration, and no dose adjustments are anticipated based on these considerations.

[5] = tested on: P-gp, BCRP, OATP1B1, or OATP1B3 transporters; experiment: Transporter substrate assessment; assay type: in vitro ADME
Excerpt: Drugs that are inhibitors of these transporters are unlikely to impact the PK of ponesimod.

[6] = Oral toxicity studies of 13 to 52 weeks in dogs, coronary arterial lesions; assay type: in vivo, dog; conditions: dog, in vivo; 13 to 52 weeks oral
Procedure: (§2) At the NOAEL (2 mg/kg/day) for these findings, plasma exposures (AUC) were approximately 2 times that expected in humans at the RHD.

dogs = experiment: as above; assay type: in vivo, dog; conditions: dogs
Procedure: as §2

mice, rats, and dogs = conditions: in vivo
Excerpt: At the higher doses tested in short-term studies, alveolar histiocytosis was associated with lung edema, emphysema, or hyalinosis, and with bronchioloalveolar hyperplasia after cessation of dosing in rats and alveolar histiocytosis and hyalinosis in dogs. Effects tended to be absent or less severe after chronic treatment. These findings are considered secondary to increased vascular permeability caused by S1P1 receptor modulation.

[7] = Coadministration with oral hormonal contraceptive; assay type: in vivo, human; conditions: 1 mg norethisterone/norethindrone and 35 μg ethinyl estradiol
Excerpt: Therefore, concomitant use of ponesimod is not expected to decrease the efficacy of hormonal contraceptives. No interaction studies have been performed with oral contraceptives containing other progestogens: however, an effect of ponesimod on their exposure is not expected.

[8] = tested on: Patients (18-55 years) with RMS; experiment: No evidence of disease activity (NEDA-3) status, baseline to week 108; assay type: in vivo, human
Procedure: Patients (18-55 years) with RMS (expanded disability status scale scores: 0-5.5) were randomized (1:1) to receive ponesimod (PON) 20 mg or teriflunomide (TER) 14 mg for 108 weeks. MRI assessments were: volume of T2 lesions; mean number of new gadolinium-enhancing (Gd+) T1 lesions and new/enlarging T2 lesions; and absence of active MRI lesions at week 108. NEDA-3 status (absence of confirmed relapse, Gd+T1 lesions and new/enlarging T2 lesions on annual MRIs, and 12-week confirmed disability accumulation) was evaluated from baseline to week 108.

male and female rats = experiment: Fertility studies in male and female rats, oral; assay type: in vivo, rat
Procedure: Plasma ponesimod exposures (AUC) at the highest dose tested were approximately 10 (males) and 30 (females) times that in humans at the recommended human dose (RHD) of 20 mg/day.

pregnant rabbits [9] = experiment: Dose-range finding study in pregnant rabbits, oral; assay type: in vivo, rabbit; conditions: 0, 6, 20, or 60 mg/kg/day; at lowest dose tested
Excerpt: as §1

mammalian cells = experiment: Chromosomal aberration in mammalian cells; assay type: cell-based; conditions: in vitro
Excerpt: Ponesimod was negative in a battery of in vitro (Ames, chromosomal aberration in mammalian cells) and in vivo (micronucleus in rat) assays.

[10] = tested on: CYP450, UGT and non-CYP450 oxidative enzymes; experiment: In vitro studies with human liver preparations (metabolism); assay type: in vitro ADME
Excerpt: Experiments with human liver preparations indicate that metabolism of ponesimod to M13 occurs primarily through a combination of non-Cytochrome P450 (CYP450) enzymatic activities. Multiple CYP450 (CYP2J2, CYP3A4, CYP3A5, CYP4F3A, and CYP4F12) and non-CYP450 enzymes catalyze the oxidation of ponesimod to M12. Ponesimod also undergoes direct glucuronidation (mainly UGT1A1 and UGT2B7).

rats = experiment: Carcinogenesis, rats, oral up to 2 years; assay type: in vivo, rat
Procedure: Plasma exposure at the highest dose tested in males (30 mg/kg/day) was approximately 4 times that in humans at the recommended human dose (RHD) of 20 mg.

pregnant rats = experiment: Embryofetal development study in pregnant rats, oral; assay type: in vivo
Excerpt: Maternal toxicity was not observed, indicating a selective effect on the fetus.

CCC/N=C1\S/C(=C\c2ccc(OC[C@H](O)CO)c(Cl)c2)C(=O)N1c1ccccc1C [Ponesimod, (R)-5-[3-chloro-4-(2,3-dihydroxy-propoxy)-benz[Z]ylidene]-2-([Z]-propylimino)-3-o-tolyl-thiazolidin-4-one]
Effect of strong CYP3A4 and UGT1A1 inducers on systemic exposure (CYP3A4 and UGT1A1): may decrease the systemic exposure | Dose recovered in feces as unchanged ponesimod [1]: 16% | Blood-brain-barrier passage [2]: readily crosses the blood-brain-barrier | Effect of food on pharmacokinetics (clinical): does not have a clinically relevant effect | Influence of age (range: 17 to 65 years) on PK (clinical): not identified to significantly influence | Influence of gender on pharmacokinetics (clinical): no clinically significant influence | Inter-subject variability of pharmacokinetics across studies (clinical): 25% | Pharmacokinetic differences between Japanese and Caucasian subjects (clinical): No clinically relevant pharmacokinetic differences | Time to steady state on maintenance dose (clinical): 3 days | clearance (clinical; iv): 63.3 mL/min | Increase of Cmax and AUC with dose (clinical; po): approximately dose-proportionally | Steady-state levels relative to a single dose (clinical; po): 2.0-2.6 fold | Time to reach maximum plasma concentration (clinical; po): 2 to 4 h | half-life (clinical; po): ~33 h | bioavailability (clinical; po, 10 mg): 84% | Embryofetal findings in rabbits (pregnant rabbits [3]; 0, 0.25, 1, or 4 mg/kg/day oral, at highest dose): an increase in post-implantation loss and fetal variations | No-effect dose for adverse effects on embryofetal development in rabbits (pregnant rabbits [3]; rabbit, in vivo): 1 mg/kg/day | Plasma exposure at no-effect dose vs humans at RHD (pregnant rabbits [3]; rabbits): lower than that in humans | Change in Cmax and AUC vs normal renal function [4]: no significant changes | Substrate of P-gp, BCRP, OATP1B1, or OATP1B3 transporters [5]: not a substrate | NOAEL [6]: 2 mg/kg/day | Plasma exposures (AUC) at NOAEL relative to humans at RHD (dogs): approximately 2 times | Lung findings in oral toxicity studies (mice, rats, and dogs): Increases in lung weight and histopathology | Pharmacokinetic interaction with oral hormonal contraceptive [7]: no clinically relevant pharmacokinetic interaction | Odds ratio PON vs TER for NEDA-3 [8]: 1.70 | Patients achieving NEDA-3 [8]: 28.2% | Effects on fertility in rats (male and female rats; 0, 10, 30, or 100 mg/kg/day oral): no effects on fertility | Plasma exposure (AUC) at highest dose relative to humans at RHD, females (male and female rats; 100 mg/kg/day): ~30 times | Plasma exposure (AUC) at highest dose relative to humans at RHD, males (male and female rats; 100 mg/kg/day): approximately 10 times | Findings in dose-range finding study in pregnant rabbits (pregnant rabbits [9]): an increase in embryofetal death and fetal limb malformation | Chromosomal aberration in mammalian cells result (mammalian cells): negative | Contribution of enzymes to metabolism [10]: without major contribution by any single enzyme | Plasma exposure at highest dose in male rats (30 mg/kg/day) relative to humans at RHD (rats; rat, in vivo): approximately 4 times | Carcinogenicity findings in rats (rats; up to 30 (males) / 100 (females) mg/kg/day): did not result in an increase in tumors | Embryofetal findings in rats (pregnant rats; 0, 1, 10, or 40 mg/kg/day oral during organogenesis, at all but the lowest dose): increased incidences of fetal malformations | No-effect dose for adverse effects on embryofetal development in rats (pregnant rats; rat, in vivo): 1 mg/kg/day | Plasma exposure (AUC) at no-effect dose vs humans at RHD 20 mg/day (pregnant rats; rats): lower than that in humans
